Measured values reported in paper PMC10339762, “Fragment-based drug discovery of small molecule ligands for the human chemokine CCL28” (SLAS discovery : advancing life sciences R & D, 2023).

What was measured:
Assay type in all cases: binding
[1] = molecular target: T1, CCL28(1-108) (Homo sapiens, UniProt Q9NRJ3); assay: 1H-15N HSQC NMR titration of repurchased fragment hits (hit validation); settings: for Kd: 50 μM CCL28(1-108), fragment 0–6 mM, HSQC at 25 °C, estimated by nonlinear fitting, read-out: Kd (fitting of titration-derived chemical shift perturbation data)
T1 construct: Uniformly ^15N-labeled CCL28(1-108) and CCL28(4-108) proteins were expressed using a previously described SUMO fusion construct; Smt (SUMO) fusion tag (N, cleaved yes); made in house; host or cells: E. coli BL21(DE3)
T1 sequence (Q9NRJ3 20-127): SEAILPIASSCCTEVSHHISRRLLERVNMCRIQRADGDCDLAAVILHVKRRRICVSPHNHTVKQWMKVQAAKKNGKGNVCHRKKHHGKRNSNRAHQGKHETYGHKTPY
Procedure: NMR samples for fragment screening and titration experiments were prepared using a liquid handling robot designed for and dedicated to sample mixing and loading of NMR sample tubes as previously described, except that 1.7 mm sample tubes were used with sample volumes of 60 μL. All ^1H,^15N HSQC spectra were acquired at 25 °C and 600 MHz on a Bruker Avance III HD NMR spectrometer equipped with a 1.7 mm TCI CryoProbe and SampleJet sample handling robot. NMR data processing was performed in an automated manner, as previously described. Custom Python scripts were used to automate the movement of NMRPipe processing scripts to each experiment directory, run the NMRPipe processing scripts, transfer transformed spectra to a processed data directory, compute HSQC difference spectra, generate HSQC overlay and HSQC difference contour plot files for each sample, perform principal component analysis calculations and K-means cluster analysis on all spectra acquired in each round of fragment screening.
Fragment screening was conducted against 50 μM ^15N-CCL28(1-108) in an iterative multiplexed manner as previously described, except that each chemical fragment was present at a concentration of 500 μM instead of 1mM. A collection of 2,678 fragments comprised of the Core 1000 (Maybridge), Zenobia 1 (Zenobia), L5700 (Targetmol), and 3D Shape Diverse (Enamine) libraries were arranged into 12-plex groups for the first iteration. A consistent buffer was used across all NMR samples (50 mM dMES, 150 mM NaCl, 3% v/v DMSO, 0.02% w/v sodium azide, 5% v/v deuterium oxide) for 12-plex, 3-plex, and single compound screening rounds. Principal component analysis (PCA) and difference intensity analysis (DIA) comparisons of a reference (DMSO only) spectrum with each screening spectrum were used to identify potential hits, which were then verified by manual inspection of HSQC overlays and HSQC difference spectra, as previously described. Candidate hits were repurchased and subjected to ^1H-^15N HSQC titration with 50 μM CCL28(1-108) at concentrations ranging from 0–6 mM. Repurchased compound identities were confirmed via 1D ^1H NMR, and purity was determined to be at least 90% via natural abundance ^1H-^13C HSQC. For a subset of validated hits, CCL28 binding was measured in combination with a second fragment, each of which was titrated to a maximum concentration of 3 mM.
Because hits were identified in the primary screen from 2D NMR spectra acquired at a single fragment concentration, evaluating each candidate in terms of CCL28 binding affinity and specificity was essential. HSQC titrations up to a final concentration of 6 mM were performed using repurchased material for each candidate hit. Using the same chemical shift mapping approach employed for sTyr binding (Fig. 1B & C), titration-derived chemical shift perturbation data was used to ascertain and visualize the residues most affected by the addition of each compound. Fragment binding affinities were estimated by nonlinear fitting as previously described. […] While Kd value estimates ranged from ~1 mM to > 10 mM (Fig. 3), the other 13 fragments reproduced HSQC perturbations observed in the primary NMR screen, and PCA clustered them in two groups distinct from the non-hits. […] Four fragments mainly affected residues […], R21, E25, and the side chain of Q69 located in a cleft between the N-loop and α-helix. Another eight fragments largely perturbed residues in the sY binding cleft (Fig. 1C), including I53, which is analogous to V49 of CXCL12, a critical residue in facilitating binding interactions with sY21 of its receptor CXCR4 [18].

[2] = molecular target: T2, CCL28(4-108) (Homo sapiens, UniProt Q9NRJ3); assay: Single-fragment 1H-15N HSQC titration, chemical shift mapping; settings: 6 mM fragment, 50 μM CCL28(4-108)
T2 construct: Uniformly ^15N-labeled CCL28(1-108) and CCL28(4-108) proteins were expressed using a previously described SUMO fusion construct; Smt (SUMO) fusion tag (N, cleaved yes); made in house; host or cells: E. coli BL21(DE3)
T2 sequence (Q9NRJ3 23-127): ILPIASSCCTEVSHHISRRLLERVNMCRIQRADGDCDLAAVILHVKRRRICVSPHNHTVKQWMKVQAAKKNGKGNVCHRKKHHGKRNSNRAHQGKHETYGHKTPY

[3] = molecular target: T2, CCL28(4-108); assay: Dual-fragment NMR titration; settings: one fragment titrated 0–3 mM into 3 mM of the other, 50 μM CCL28

Row | Kd [1] [mM] | SMILES | also measured
1 | 2.3 | O=C(O)c1ccc2c3c(cccc13)CC2 [ZT0784] | Binding site by chemical shift mapping ([1]; HSQC titration up to 6 mM, two potential sites (N-loop/α-helix cleft; sY binding cleft)): perturbed residues located in both sites
2 | > 10 | Cc1cc(Cl)ccc1S(=O)(=O)Nc1ccon1 [E2C04.04 C11.12C09] | –
3 | > 10 | Cc1cccc(C(=O)O)c1O [ZT0733] | –
4 | 6.6 | O=C(O)c1ccc(-c2ccccc2)s1 [CC10501] | Residues with largest / strong fragment-induced peak shifts [2]: I53, S20, and R21, CC10501 additionally yielded strong peak shifts for E25, Q69, and M66; Simultaneous binding of fragment pair [3]: can occupy adjoining subsites within the same cleft on the CCL28 surface
5 | 1.2 | Sc1nc2cc(Cl)ccc2o1 [ZT0010] | –
6 | 3.2 | O=C(O)c1ccc(-c2cccs2)s1 [CC146001] | –
7 | > 10 | O=C(O)c1cc2cc(C(F)(F)F)ccc2[nH]1 [TA01.A04.02A03] | –
8 | > 10 | O=C(O)c1cc2cc(F)ccc2[nH]1 [ZT0073] | –
9 | 0.85 | OCCCCn1cnc2cc(Cl)c(Cl)cc21 [SPB07625] | Simultaneous binding of fragment pair [3]: can occupy adjoining subsites within the same cleft on the CCL28 surface
10 | > 10 | O=C(O)c1cc2ccccc2[nH]1 [ZT1669] | –
11 | > 10 | O=C(O)/C=C/c1ccccc1 [ZT0754] | –
12 | > 10 | Cc1csc(C(C#N)C(=O)c2ccccc2F)n1 (centres unmarked) [E2C02.03 C11.09C10] | –

Row | SMILES | Kd [1] [mM] | also measured
13 | O=c1cc(O)c2ccccc2o1 [ZT0262] | > 10 | –
